# Counter-ions that a name gives are not always drawn.
# Molecular target: ATX (human His-tagged) (Homo sapiens (Human), UniProt Q13822)
# Assay: Human ATX enzyme inhibition assay (fluorescence quenching, MR121 substrate)
# Format: biochemical
# Conditions: 30 nM ATX, 1 μM MR121 substrate, 30° C., pH 8.0
# Outline: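 Tris-HCl buffer at pH 8.0 contained 140 mM NaCl, 5 mM KCl, 1 mM each CaCl2 and MgCl2, and 0.01% Triton X-100. The MR121 substrate (1 μM final) was incubated with enzyme for 15 min at 30 °C, and activity was read by fluorescence quenching.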
row,Structure (SMILES),IC50 [nM]
1,"O=C(c1cnc(OCC(F)(F)F)c(C(F)(F)F)c1)N1C[C@@H]2CN(C(=O)c3ccc4[nH]nnc4c3)C[C@H]2C1 [Example 19.43, ((3aS,6aS)-5-(1H-benzo[d][1,2,3]triazole-5-carbonyl)hexahydropyrrolo[3,4-c]pyrrol-2(1H)-yl)(6-(2,2,2-trifluoroethoxy)-5-(trifluoromethyl)pyridin-3-yl)methanone]",14
2,"O=C(OCc1cc(Cl)cc(Cl)c1)N1C[C@@H]2CN(C(=O)C3CCc4[nH]nnc4C3)C[C@@H]2C1 (stereo partly drawn) [Example 1.13, (3aR,6aS)-3,5-dichlorobenzyl 5-(4,5,6,7-tetrahydro-1H-benzo[d][1,2,3]triazole-5-carbonyl)hexahydropyrrolo[3,4-c]pyrrole-2(1H)-carboxylate]",226
3,"O=C(OCc1ccc(F)cc1C(F)(F)F)N1CC[C@@H]2CN(C(=O)c3ccc4[nH]nnc4c3)C[C@H]2C1 (relative stereo) [Example 1.30, trans-2-(1H-benzotriazole-5-carbonyl)-octahydro-pyrrolo[3,4-c]pyridine-5-carboxylic acid 4-fluoro-2-trifluoromethyl-benzyl ester]",20
4,O=C(CCc1ccccc1)N1C[C@@H]2CN(C(=O)c3ccc4[nH]nnc4c3)C[C@H]2C1 [Example 15.57],494
5,"O=C(OC1(c2cccc(Cl)c2)CC1)N1C[C@@H]2CN(C(=O)c3ccc4[nH]nnc4c3)C[C@@H]2C1 [Example 4.12, (3aS,6aR)-5-(1H-benzotriazole-5-carbonyl)-hexahydro-pyrrolo[3,4-c]pyrrole-2-carboxylic acid 1-(3-chloro-phenyl)-cyclopropyl ester]",1480
6,"O=C(CCc1ccc(OC(F)F)cc1)N1C[C@@H]2CN(C(=O)c3ccc4[nH]nnc4c3)C[C@H]2C1 [Example 17.03, 1-[(3aR,6aR)-5-(1H-benzotriazole-5-carbonyl)-hexahydro-pyrrolo[3,4-c]pyrrol-2-yl]-3-(4-difluoromethoxy-phenyl)-propan-1-one]",16

# The remaining lines, values ahead:
row,IC50 [nM],Structure (SMILES)
1,13,O=C(c1ccc2[nH]nnc2c1)N1C[C@H]2CN(C(=O)c3cc4ccc(OC(F)(F)F)cc4[nH]3)C[C@@H]2C1 [Example 15.98]
2,6740,"O=C(/C=C/c1ccc(OC(F)(F)F)cc1)N1CC[C@@H]2CN(C(=O)[C@@H]3Cc4[nH]cnc4CN3)C[C@@H]2CC1 [Example 18, (E)-3-[4-(Trifluoro-methoxy)-phenyl]-1-[(3aS,8aR)-2-((S)-4,5,6,7-tetrahydro-1H-imidazo[4,5-c]pyridine-6-carbonyl)-octahydro-pyrrolo[3,4-d]azepin-6-yl]-prop-2-en-1-one hydrochloride]"
3,114,"O=C(COc1ccc(OC(F)(F)F)cc1)N1CC[C@@H]2CN(C(=O)c3ccc4[nH]nnc4c3)C[C@H]2C1 (relative stereo) [Example 1.25, 1-[trans-2-(1H-benzotriazole-5-carbonyl)-octahydro-pyrrolo[3,4-c]pyridin-5-yl]-2-(4-trifluoromethoxy-phenoxy)-ethanone]"
